PubChem BioAssay (NCI)
Several values for one entry are separate records, joined by “and”; a condition that tells them apart may be missing. Identical values can stand only once.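 Five concentrations, 48 hours, 96-well plates. GI50 is the concentration that inhibits growth by half. The concentration for full growth arrest is given as TGI.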

What was measured:
Experiment in all cases: growth of human tumour cells (NCI), 48 h
SF-539 CNS = tested on: SF-539 CNS
HOP-62 NSCLC = tested on: HOP-62 NSCLC
DMS 114 small cell lung = tested on: DMS 114 small cell lung
HOP-92 NSCLC = tested on: HOP-92 NSCLC
NCI-H460 lung = tested on: NCI-H460 lung
SN12C renal = tested on: SN12C renal
SK-MEL-28 melanoma = tested on: SK-MEL-28 melanoma
EKVX NSCLC = tested on: EKVX NSCLC
HOP-18 NSCLC = tested on: HOP-18 NSCLC
CAKI-1 renal = tested on: CAKI-1 renal

SMILES	TGI (SF-539 CNS)	TGI (HOP-62 NSCLC)	TGI (DMS 114 small cell lung) [µM]	TGI (HOP-92 NSCLC)	TGI (NCI-H460 lung) [µM]	TGI (SN12C renal) [µM]	TGI (SK-MEL-28 melanoma) [µM]	TGI (EKVX NSCLC) [µM]	TGI (HOP-18 NSCLC) [µM]	TGI (CAKI-1 renal)	GI50 (HOP-62 NSCLC)	GI50 (DMS 114 small cell lung) [µM]	GI50 (HOP-92 NSCLC) [µM]	GI50 (NCI-H460 lung) [µM]	GI50 (SN12C renal) [µM]	GI50 (SK-MEL-28 melanoma) [µM]	GI50 (EKVX NSCLC) [µM]	GI50 (HOP-18 NSCLC) [µM]	GI50 (CAKI-1 renal) [µM]	GI50 (SF-539 CNS)
COc1ccccc1NC(=O)c1nc2ccc([N+](=O)[O-])cc2nc1C	> 100 µM	> 100 µM	> 100	> 100 µM	> 100	> 100	> 100	> 100	39.9	> 100 µM	–	–	–	–	–	–	–	–	–	–
O=C(COC(=O)c1cccc2c(=O)c3ccccc3[nH]c12)Nc1ccc(C(=O)O)cc1	> 100 µM	> 100 µM	> 100	> 100 µM	> 100	> 100	> 100	> 100	> 100	> 100 µM	–	–	–	–	–	–	–	–	–	–
Ic1cc2c(cc1C1SCCCS1)OCO2	> 100 µM	> 100 µM	> 100	> 100 µM	> 100	> 100	> 100	> 100	> 100	> 100 µM	–	–	–	–	–	–	–	–	–	–
COc1ccc2nc3cc(Cl)ccc3c(Sc3ccc([N+](=O)[O-])cc3)c2c1	> 10 µM	> 100 µM	> 100	> 100 µM	> 100	> 100	> 100	> 100	> 100	> 100 µM	> 100 µM	> 100	> 100	> 100	> 100	> 100	> 100	> 100	> 100	–
COc1ccc(C2C(C)C(=O)C(C)C(c3ccc(OC)cc3)N2N=O)cc1 (configuration not stated)	46.8 µM and 341 µM and 222 µM	> 80 µM and 60.7 µM and 293 µM	> 1000	> 80.9 µM and 190 µM and 149 µM	> 1000	> 1000	> 1000	> 1000	> 1000	750 µM and 577 µM	24.8 µM and 23.9 µM	> 1000	> 47.9	> 750	> 750	> 750	–	> 1000	50.1	18 µM and 41.3 µM
OCCN1CCN2C=C(C3CCCC4N(CCO)CCN34)CCC21 (configuration not stated)	> 92.2 µM	> 100 µM	72.5	> 100 µM	> 100	> 100	> 100	> 100	> 100	> 100 µM	–	–	–	–	–	–	–	–	–	–
CCN(CC)Cc1c(/C=C\c2cc(OC)c(OC)c(OC)c2)ccc(OC)c1O	9.24 µM	> 100 µM	5.68	> 100 µM	> 100	> 71.7	> 100	> 93.5	> 100	> 100 µM	–	–	–	–	–	–	–	–	–	–
NNC(=O)N/N=C1\C(=O)N(c2ccc(Cl)c(Cl)c2)C(=O)C(=O)C1c1nc2ccccc2s1 (configuration not stated)	> 100 µM	> 100 µM	> 100	> 100 µM	> 100	> 100	> 100	> 100	> 100	> 100 µM	–	–	–	–	–	–	–	–	–	–
CC(C)NC(=O)CCN(C(=O)O)S(=O)(=O)c1ccc(NC(=O)c2ccccc2)cc1	67.5 µM	> 100 µM	> 54.3	> 100 µM	> 59.7	> 100	> 100	> 100	> 100	> 100 µM	–	–	–	–	–	–	–	–	–	–
CC#CC1C2CCCC1(CSc1ccccc1)NC(=O)O2 (configuration not stated)	> 100 µM	> 100 µM	> 100	> 100 µM	> 100	> 100	–	> 100	> 100	> 100 µM	–	–	–	–	–	–	–	–	–	–
Clc1ccc(-c2c(C3=NCCCN3)nnn2-c2ccccc2)cc1	> 100 µM	> 100 µM	> 100	> 100 µM	> 100	> 100	> 100	> 100	> 100	> 100 µM	–	–	–	–	–	–	–	–	–	–
